{"source": "patent US9561201B2", "about": "“Therapeutic compounds” (Fibrotech Therapeutics Pty Ltd, priority 2006, dated 2017)", "key": {"[1]": {"tested_on": "neonatal SD rat cardiac fibroblasts", "assay": "Angiotensin II-stimulated fibrosis (proline incorporation) in neonatal cardiac fibroblasts (Example 4)", "format": "cell-based", "protocol": "Matrix synthesis may be stimulated by both angiotensin II or transforming growth factor beta (TGF-β).\nNeonatal SD rat cardiac fibroblasts (NCFs) were isolated from one-day-old pups with enzymatic digestion. NCFs were purified by percoll gradient and seeded with DMEM in the present of 1% antibiotic/antimycotic (AB/AM) and 10% fatal bovine serum (FBS). NCFs were then subcultured when they are about 80% confluence. The second passage of NCFs was used for the assays.\nNCFs were seeded at 25,000 cells/well in 12-well plates and incubated at 37° C. and 5% CO2 overnight in DMEM with 1% AB/AM and 10% FBS. Cells were then washed with DMEM and then the media replaced with DMEM/F12 with 1% AB/AM, 0.5% Bovine Serum Albumin (BSA) and Vitamin C, before being incubated at 37° C. and 5% CO2 for 24 hours.\nThe effect of FT011 on TGF-β- or angiotensin II-stimulated fibrosis in the neonatal SD rat cardiac fibroblasts was investigated."}, "[2]": {"tested_on": "Mesangial cells", "assay": "PDGF stimulated matrix synthesis (proline incorporation) in mesangial cells (Example 3)", "format": "cell-based, rat", "text": "Matrix synthesis may be stimulated by platelet derived growth factor (PDGF)."}, "[3]": {"assay": "Pilot study (toxicity assessment), 2 weeks oral gavage", "format": "in vivo, Sprague-Dawley (SD) rats", "conditions": "for ALT / Body weight / Plasma Creatinine / Plasma Urate: 2 weeks", "protocol": "A total of twenty male Sprague-Dawley (SD) rats weighing 200-250 g were randomised to either FT011 (Fibrotech Therapeutics Pty Ltd, Melbourne, Australia) or Tranilast (Pharm Chemical, Shanghai Lansheng Corporation, China) at the dose of 50 mg, 100 mg, 200 mg and 400 mg/kg/day by gavage twice daily (n=2-3 per group). A control group of animals were gavaged with vehicle (1% carboxy methyl cellulose). The study was conducted for 2 weeks. Animals were bled daily at one, four, and eight hours after oral gavage to measure the plasma concentration. Serum was also collected to assess renal and liver function at the end of the study (plasma creatine and urate, ALT and bilirubin). Rats were individually housed in metabolic cages at the end of the study, habituated for 2 to 3 hours, and urine collected over 24 hours. Animals continued to have free access to tap water and standard laboratory chow during this period. The biochemistry tests performed at the department of pathology, St Vincent's hospital. Major organs including lung, heart, liver, spleen and kidney were harvested and immersed fix with 10% neutral buffered formalin and then embedded paraffin for subsequent light microscope examination."}, "[4]": {"tested_on": "STZ diabetic (mRen-2)27 rats", "assay": "Diabetic (mRen-2)27 rats treated with FT011", "format": "in vivo", "conditions": "for GFR: 16 weeks", "quoted_text": "Forty six-week old female, heterozygous (mRen-2)27 rats (St. Vincent's Hospital Animal House, Melbourne, Australia) were assigned to receive either 55 mg/kg of STZ (Sigma, St. Louis, USA) diluted in 0.1 M citrate buffer, pH 4.5 or citrate buffer alone (non-diabetic) by tail vein injection following an overnight fast. […] Treatment commenced within 24 hours of STZ or citrate buffer injection.\nRats were individually housed in metabolic cages at 4, 8 12 and 16 weeks, habituated for 2 to 3 hours, and urine collected over 24 hours. […] After 24 hours in metabolic cages, an aliquot of urine (5 mL) was collected from the 24-hour urine sample and stored at −70° C. for subsequent analysis of albumin by radio-immunoassay, as previously performed [36]. Prior to sacrifice, the glomerular filtration rate (GFR) was determined by injecting a single shot of 99Tc-DTPA into the tail vein and sampling the blood after 43 minutes, as previously described [37].\nRats were anaesthetised (Nembutal 60 mg/kg body wt i.p. Boehringer-Ingelheim, Australia). […] Kidneys were excised, decapsulated, sliced transversely, half of the kidney snap frozen for tissue RNA assay and other half immersed fix with formalin and paraffin-embedded for subsequent light microscopic evaluation.\nHistopathological changes in kidney and heart were assessed in a masked protocol.\nIn 4 μm kidney sections stained with PAS, 150 to 200 glomeruli from rats were examined in a masked protocol. […] A glomerulosclerotic index (GSI) was then calculated using the Formula (4):\nTo assess the tubulointerstitial fibrosis in kidney sections were stained with modified Masson's trichrome. Briefly, 5 random non-overlapping fields from 10 rats per group were captured and digitised using a BX50 microscope attached to a Fujix HC5000 digital camera. Digital images were then loaded onto a Pentium III IBM computer as described as above. An area of red in heart and blue in kidney on picrosirius red and trichrome-stained section, respectively, were selected for its color range and the proportional area of tissue with this range of color was then quantified. Calculation of the proportional area stained red and blue (matrix) was then determined using image analysis (AIS, Analytical imaging Station Version 6.0, Ontario, Canada) [37, 39]."}, "[5]": {"tested_on": "SD rats post myocardial infarction (LAD ligation)", "assay": "Myocardial infarct rats treated with FT011", "format": "in vivo", "protocol": "Twenty rats underwent ligation of left anterior descending coronary artery (LAD) to induce anterior myocardial infarction (MI). Briefly, surgery performed under aseptic conditions on a heated table (37° C.) to maintain body warmth during the course of the procedure. The chest swabbed with chlorhexidine in 70% ethanol to disinfect the area. An incision made into the skin to the left of the sternum and the underlying muscle layers blunt dissected. A thoracotomy performed through the fourth to fifth intercostal space and the ribs held open using retractors to enable access to the heart. The pericardial sac surrounding the heart torn open and a 6-0 prolene suture used to ligate the LAD immediately. Visible blanching and hypokinesis of the anterior wall of the left ventricle and swelling of the left atrium are indicative of successful ligation. The control groups (sham+vehicle, sham+FT011) underwent a sham operation consisting of the same procedure except that the suture passed through the myocardium beneath the LAD without ligation.\nEchocardiography was performed on all animals 2 days post surgery and randomised to sham and MI groups. Animals were re-randomised at day 7 post surgery (10 animal each) to receive: vehicle or FT011 (100 mg/kg bid gavage). Every week, systolic blood pressure (SBP) was determined in preheated conscious rats via tail-cuff plethysmography using a non-invasive blood pressure (NIBP) controller and Powerlab (AD instruments, NSW, Australia). Cardiac function was assessed by echocardiography and cardiac catheterization prior to sacrificing at day 35 post surgery for all animals.\nEchocardiography, including Doppler examination, was performed using a Vivid 7 Dimension (GE Vingmed, Horten, Norway) echocardiograph with a 10 MHz phased array probe. Electrocardiographic data were acquired simultaneously. End-diastole was defined as the peak of the R wave, and end-systole was defined as the end of the T wave.\nAnimals were anaesthetized with pentobarbitone sodium 60 mg/kg i.p. injection. Animals underwent echocardiographic interrogation in the left recumbent position. M-mode echocardiography was performed using a parasternal short axis view at the level of the papillary muscles. Left ventricular posterior (LVPW) and anterior wall thickness (LVAW) were obtained during diastole (d) and systole (s), as were the left ventricular internal diameter at end-diastole (LVIDd) and end-systole (LVIDs). From the para-sternal short axis view, the end diastolic and end systolic cross sectional blood pool areas were measured. Fractional area change (FAC) was then calculated according to the formulae: FAC=[(end-diastolic area-end-systolic area)/end-diastolic area]*100.\nThe apical 4-chamber view was used to assess early and late transmitral peak diastolic flow velocity (E and A waves), using pulsed wave Doppler with a sample volume of 2 mm placed at the tips of the mitral valve leaflets. All Doppler spectra were recorded for 10 cardiac cycles at a sweep speed of 200 mm/s. All parameters were assessed using an average of three beats, and calculations were made in accordance with the American Society of Echocardiography guidelines. All data were acquired and analyzed by a single blinded observer using EchoPAC (GE Vingmed) offline processing.\nPost echocardiography, animals were placed on a warming pad (37° C.), intubated using a 14 gauge catheter, and ventilated using positive pressure with a tidal volume of […] at 70 breaths per minute using room air. Animals were secured in a recumbent position and the right jugular vein was cannulated with 0.9% NaCl infused at 100 μL per hour. […] The right internal carotid was then identified and ligated cranially. A 2F miniaturized combined conductance catheter-micromanometer was inserted into the carotid artery to obtain aortic blood pressure, then advanced into the left ventricle until stable pressure volume (PV) loops were obtained."}, "[6]": {"conditions": "diabetic rats, 100 mg/kg bid gavage"}, "[7]": {"conditions": "MI rats, 100 mg/kg bid gavage from day 7, day 35 post surgery"}, "[8]": {"conditions": "MI rats, 100 mg/kg bid gavage, echocardiography"}, "[9]": {"conditions": "MI rats, 100 mg/kg bid gavage, listed as FT011, 100 mg/kg"}}, "note": "Entries after “also recorded” stand apart in the source; their conditions may differ.", "data": [{"smiles": "C#CCOc1ccc(/C=C/C(=O)Nc2ccccc2C(=O)O)cc1OC", "note": "[Analogue 11]", "values": [{"measurement": "angiotensin II-stimulated fibrosis (proline incorporation)", "setting": "[1]", "result": "inhibited"}, {"measurement": "PDGF-stimulated matrix synthesis (proline incorporation)", "setting": "[2]; 30 and 100 μM", "result": "inhibits"}, {"measurement": "potency at reducing proline incorporation compared with tranilast", "setting": "[2]; PDGF stimulation, 30 μM", "result": "more potent"}, {"measurement": "ALT", "setting": "[3]; 50 mg/kg/day gavage", "result": "41 ± 1"}, {"measurement": "Body weight", "setting": "[3]; 50 mg/kg/day gavage", "result": "313 ± 24", "unit": "Gram"}, {"measurement": "Plasma Creatinine", "setting": "[3]; 50 mg/kg/day gavage", "result": "38 ± 2", "unit": "µmol/L"}, {"measurement": "Plasma Urate", "setting": "[3]; 50 mg/kg/day gavage", "result": "<0.09", "unit": "mmol/L"}, {"measurement": "ALT", "setting": "[3]; 100 mg/kg/day gavage", "result": "44 ± 2"}, {"measurement": "Body weight", "setting": "[3]; 100 mg/kg/day gavage", "result": "308 ± 22", "unit": "Gram"}, {"measurement": "Plasma Creatinine", "setting": "[3]; 100 mg/kg/day gavage", "result": "39 ± 0.5", "unit": "µmol/L"}, {"measurement": "Plasma Urate", "setting": "[3]; 100 mg/kg/day gavage", "result": "<0.09", "unit": "mmol/L"}, {"measurement": "ALT", "setting": "[3]; 200 mg/kg/day gavage", "result": "36 ± 0.5"}, {"measurement": "Body weight", "setting": "[3]; 200 mg/kg/day gavage", "result": "301 ± 8", "unit": "Gram"}, {"measurement": "Plasma Creatinine", "setting": "[3]; 200 mg/kg/day gavage", "result": "37 ± 0.6", "unit": "µmol/L"}, {"measurement": "Plasma Urate", "setting": "[3]; 200 mg/kg/day gavage", "result": "<0.09", "unit": "mmol/L"}, {"measurement": "ALT", "setting": "[3]; 400 mg/kg/day gavage", "result": "32 ± 4.4"}, {"measurement": "Body weight", "setting": "[3]; 400 mg/kg/day gavage", "result": "264 ± 29", "unit": "Gram"}, {"measurement": "Plasma Creatinine", "setting": "[3]; 400 mg/kg/day gavage", "result": "36 ± 3.9", "unit": "µmol/L"}, {"measurement": "Plasma Urate", "setting": "[3]; 400 mg/kg/day gavage", "result": "<0.09", "unit": "mmol/L"}, {"measurement": "level of FT011 measured in plasma", "setting": "[3]; following gavage, 50-400 mg/kg/day", "result": "increased in a dose dependent manner"}, {"measurement": "level of FT011 measured in urine", "setting": "[3]; rats treated with FT011, 24 h urine", "result": "significant level"}, {"measurement": "GFR", "setting": "[4]; diabetic rats + FT011 100 mg/kg bid gavage", "result": "5.90 ± 0.20", "unit": "mL/min"}, {"measurement": "extent of glomerulosclerosis (PAS-stained sections)", "setting": "[4]; [6]", "result": "reduction"}, {"measurement": "rise in albuminuria", "setting": "[4]; [6]", "result": "significantly attenuated"}, {"measurement": "tubular (tubulointerstitial) fibrosis (trichrome-stained sections)", "setting": "[4]; [6]", "result": "reduction"}, {"measurement": "GFR", "setting": "[4]; non-diabetic control rats + FT011 100 mg/kg bid gavage", "result": "3.63 ± 0.08", "unit": "mL/min"}, {"measurement": "Myocardial infarct size, treated versus untreated MI groups", "setting": "[5]; 100 mg/kg bid gavage, P=0.36", "result": "similar"}, {"measurement": "LVED", "setting": "[5]; MI rats, 100 mg/kg bid gavage", "result": "0.53 ± 0.04", "unit": "mL"}, {"measurement": "LVES", "setting": "[5]; MI rats, 100 mg/kg bid gavage", "result": "0.15 ± 0.02", "unit": "mL"}, {"measurement": "LV/BW", "setting": "[5]; [7]", "result": "0.22 ± 0.004"}, {"measurement": "RV/BW", "setting": "[5]; [7]", "result": "0.048 ± 0.002"}, {"measurement": "adverse LV remodelling on echocardiography (LVIDd, LVIDs, FAC, E:A ratio, deceleration time)", "setting": "[5]; MI rats, 100 mg/kg bid gavage, 5 weeks post MI", "result": "significantly attenuated"}, {"measurement": "Deceleration time", "setting": "[5]; [8]", "result": "38.64 ± 1.2", "unit": "ms"}, {"measurement": "E:A ratio", "setting": "[5]; [8]", "result": "2.00 ± 0.26"}, {"measurement": "FAC %", "setting": "[5]; [8]", "result": "42.69 ± 2.3", "unit": "%"}, {"measurement": "LVIDd", "setting": "[5]; [8]", "result": "0.92 ± 0.03", "unit": "cm"}, {"measurement": "LVIDs", "setting": "[5]; [8]", "result": "0.70 ± 0.03", "unit": "cm"}, {"measurement": "collagen subtype I and III immunostaining in non-infarct zone", "setting": "[5]; [9]", "result": "reduction in immunostaining; also recorded: attenuated"}, {"measurement": "infiltration of ED-1 positive macrophages in non-infarct zone", "setting": "[5]; [9]", "result": "reduction in macrophage number; also recorded: attenuated"}, {"measurement": "interstitial fibrosis in non-infarct zone (Masson's trichrome)", "setting": "[5]; [9]", "result": "marked reduction; also recorded: attenuated"}]}]}
